Read-outs that look alike come from different tables or passages of the source.
Legend:
A128T IN HIV-1NL4-3 = experiment: A128T HIV-1 infectivity in TZM-bl cells; assay type: cell-based; details: particles produced in presence of inhibitor
HIV-1 IN [1] = target: T1, HIV-1 IN (Human immunodeficiency virus type 1 group M subtype B, UniProt P12497); set-up: DLS analysis of KF116-induced multimerization of recombinant IN; method as in PMID 22437836; details: HTRF; read-out: EC50 for aberrant IN multimerization; cited from earlier work
IN-LEDGF/p75 [2] = target: T2, IN-LEDGF/p75 (Human immunodeficiency virus type 1 group M subtype B, UniProt P12497); set-up: method as in PMID 22437836; details: HTRF; read-out: IC50 for IN-LEDGF/75 binding; cited from earlier work
HIV-1NL4-3 [3] = details: cited from earlier work
HIV-1 IN [4] = target: T1, HIV-1 IN; details: IC50 for inhibiting IN-LEDGF/p75 binding divided by EC50 for aberrant IN multimerization; fold
Experimental: (§1) HTRF-based IN multimerization and IN-LEDGF/p75 binding assays were carried out as described previously [33]. The HTRF signal was recorded using a Perkin Elmer Multimode EnSpire plate reader.

in vitro = assay type: cell-based
Experimental: The cytotoxcity assays were performed as described previously. The fitted dose-response curves were generated to calculate EC50 or CC50 using Origin software (OriginLab, Inc.).

HIV-1NL4-3 [5] = experiment: microbe, parasite or virus in culture; assay type: cell-based; details: for Selectivity Index, CC50/IC50: CC50 for cytotoxicity by IC50 for antiviral activity
HIV-1 [6] = tested on: HIV-1; set-up: method as in PMID 24040198; details: ref 41; read-out: IC50 in target cells; cited from earlier work
[7] = tested on: LEDGF/p75-dependent HIV-1 integration; experiment: HIV-1 integration site distribution (ligation-mediated PCR, 454-pyrosequencing); assay type: cell-based
[8] = tested on: VSV-G pseudotyped HIV-1-Luc in PSIP1 KO HEK293T cells; experiment: microbe, parasite or virus in culture; assay type: cell-based
HIV-1 [9] = experiment: Antiviral assay, late stage (inhibitor added to producer cells); assay type: cell-based; details: Human immunodeficiency virus 1, virions prepared in presence of inhibitor, untreated target cells; called IC50
Experimental: Results represent mean ± SD from three independent experiments.
For late stage experiments, the progeny virions were prepared in the presence of the indicated concentrations of the test inhibitor or diluent control (DMSO) and were then used to infect untreated target cells.

HIV-1 expression = assay type: cell-based; details: for inhibition of HIV-1 expression: target cells
HIV-1 IN [10] = target: T1, HIV-1 IN; experiment: biochemical
Experimental: as §1

IN-LEDGF/p75 [11] = target: T2, IN-LEDGF/p75; experiment: HTRF-based IN-LEDGF/p75 binding assay; set-up: species or system HIV-1
Experimental: HTRF-based IN multimerization and IN-LEDGF/p75 binding assays were carried out as described previously [33].

[12] = tested on: VSV-G pseudotyped HIV-1-Luc; assay type: cell-based
[13] = target: the molecule itself; experiment: AlphaScreen or HTRF; HTRF-based IN multimerization assay in vitro, compound (KF115 or KF116) titrated; carried out as described in ref. 33
[14] = target: the molecule itself; experiment: cross-linking; concentrated, detergent-lysed virions (50 ng p24) from HEK293T cells treated with DMSO or 1 µM KF116; 50 µM BS3; SDS-PAGE and immunoblot with HIV-1 IN antibody
[15] = ref 33, 41, read-out: antiviral activity IC50
[16] = Target, 5 µM, *** P<0.001 vs DMSO
[17] = target cells, 10 µM, *** P<0.001 vs DMSO

Molecule: COC(C(=O)O)c1c(C)nc2ccc(Br)cc2c1-c1ccc(Cl)cc1 (stereo not drawn) [BI-1001, reference compound]
- A128T IN HIV-1NL4-3 replication in infected cells (A128T IN HIV-1NL4-3): marked resistance
- EC50 (HIV-1 IN [1]): 4900 ± 300 nM
- IC50 (IN-LEDGF/p75 [2]): 1000 ± 100 nM
- IC50 (HIV-1NL4-3 [3]; [15]): ~5800 nM
- IC50 (HIV-1NL4-3 [3]; ref 33, read-out: Antiviral activity (IC50)): 5800 ± 100 nM
- Selectivity ratio, IC50 IN-LEDGF/EC50 aberrant IN multimerization (HIV-1 IN [4]): 0.2
- CC50 (in vitro): > 100000 nM
- Selectivity Index, CC50/IC50 (HIV-1NL4-3 [5]): >17

Molecule: Cc1nc2ccccc2c(-c2cc(F)c3c(c2C)CCCO3)c1[C@H](OC(C)(C)C)C(=O)O [GS-B, reference compound]
- IC50 (HIV-1 [6]): ~700 nM
- % in RefSeq (HIV-1 integration frequency) ([7]; Producer, 100 nM): 84.00%
- % in known genes (HIV-1 integration frequency) ([7]; Producer, 100 nM): 85.71%
- % in RefSeq (HIV-1 integration frequency) [7, 16]: 73.83%
- % in known genes (HIV-1 integration frequency) [7, 16]: 75.74%
- % in RefSeq (HIV-1 integration frequency) [7, 17]: 74.76%
- % in known genes (HIV-1 integration frequency) [7, 17]: 77.39%
- IC50 (HIV-1NL4-3 [3]; [15]): ~26 nM
- EC50 (HIV-1NL4-3 [3]; same value given in b14 with ref 33, 41, read-out: EC50 for full replication cycle): ~26 nM
- effect of complete loss of LEDGF/p75 protein in virus-producer cells on IC50 values [8]: did not alter
- EC50 (HIV-1 [9]): 39 nM
- inhibition of HIV-1 expression (HIV-1 expression; 5 µM): ~71%
- inhibition of HIV-1 expression (HIV-1 expression; 10 µM): ~88%
- reduction in target cell HIV-1 expression (HIV-1 expression; virus-producer cells treated with 0.1 µM): ~77%

Molecule: Cc1ccc(-c2nc(C)c(C(OC(C)(C)C)C(=O)O)c(-c3ccc(Cl)cc3)c2C)cc1C (stereo not drawn) [KF115]
- EC50 (HIV-1 IN [10]): 274 ± 25 nM
- Selectivity ratio, IC50 IN-LEDGF/EC50 aberrant IN multimerization (HIV-1 IN [4]): 47.4
- IC50 (IN-LEDGF/p75 [11]): 13000 ± 1500 nM
- CC50 (in vitro): > 100000 nM
- Selectivity Index, CC50/IC50 (HIV-1NL4-3 [5]): >826
- IC50 (HIV-1NL4-3 [5]; Human immunodeficiency virus 1, read-out: Antiviral activity (IC50), HIV-1NL4-3, full replication cycle): ~121 nM

Molecule: Cc1nnc(C(=O)NC(C)(C)c2nc(C(=O)NCc3ccc(F)cc3)c(O)c(=O)n2C)o1 [RAL, Raltegravir, reference compound]
- effect on replication intermediates in target cells of virions produced in presence of inhibitor [12]: no inhibitory effects
- effect on replication intermediates when inhibitor added to target cells [12]: selectively inhibited the integration step and increased the levels of 2-LTRs

B1: HIV-1 integrase (recombinant IN) (enzyme)
chain: FLDGIDKAQEEHEKYHSNWRAMASDFNLPPVVAKEIVASCDKCQLKGEAMHGQVDCSPGIWQLDCTHLEGKVILVAVHVASGYIEAEVIPAETGQETAYFLLKLAGRWPVKTVHTDNGSNFTSTTVKAACWWAGIKQEFGIPYNPQSQGVIESMNKELKKIIGQVRDQAEHLKTAVQMAVFIHNFKRKGGIGGYSAGERIVDIIATDIQTKELQKQITKIQNFRVYYRDSRDPVWKGPAKLLWKGEGAVVIQDNSDIKVVPRRKAKIIRDYGKQMAGDDCVASRQDED
notes: also called WT IN; source: recombinant
- EC50 of KF115 for aberrant IN multimerization (with KF115) [13]: 274 nM
- EC50 of KF116 for aberrant IN multimerization (with KF116) [13]: 86 nM

B2: HIV-1 integrase in virus particles (enzyme)
chain: B1 chain
notes: also called virion-associated IN
- stoichiometry N [14]: 2
